#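 Assay format: 96-well plates, 48-hour exposure. TGI is the concentration that stops growth completely.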
# Tested on: MDA-N
# Assay: growth of human tumour cells (NCI), 48 h
row,Compound,TGI [µM]
1,COC(=O)C1=C(C(=O)OC)SC(=C2SCSC3=C2SC(C(=O)OC)=C(C(=O)OC)C32SC3=C(CCCC3)S2)S1,> 100
2,CCOC(=O)N1CCN(Cc2cc(=O)n3ccc(C)cc3n2)CC1,> 100
3,COc1cccc(C2SC(N)=Nc3c2c(C)nn3C(=O)c2ccccc2O)c1 (stereo not given),> 10

# Tested on: DU-145 prostate
# Assay: growth of human tumour cells (NCI), 48 h
row,Compound,TGI [µM]
1,COC(=O)C1=C(C(=O)OC)SC(=C2SCSC3=C2SC(C(=O)OC)=C(C(=O)OC)C32SC3=C(CCCC3)S2)S1,> 100
2,CCOC(=O)N1CCN(Cc2cc(=O)n3ccc(C)cc3n2)CC1,> 100
3,COc1cccc(C2SC(N)=Nc3c2c(C)nn3C(=O)c2ccccc2O)c1 (stereo not given),> 10

# Tested on: CAKI-1 renal
# Assay: growth of human tumour cells (NCI), 48 h
row,Compound,TGI [µM]
1,COC(=O)C1=C(C(=O)OC)SC(=C2SCSC3=C2SC(C(=O)OC)=C(C(=O)OC)C32SC3=C(CCCC3)S2)S1,> 100
2,CCOC(=O)N1CCN(Cc2cc(=O)n3ccc(C)cc3n2)CC1,> 100
3,COc1cccc(C2SC(N)=Nc3c2c(C)nn3C(=O)c2ccccc2O)c1 (stereo not given),> 10

# Tested on: NCI-H522 lung
# Assay: growth of human tumour cells (NCI), 48 h
row,Compound,TGI [µM]
1,COC(=O)C1=C(C(=O)OC)SC(=C2SCSC3=C2SC(C(=O)OC)=C(C(=O)OC)C32SC3=C(CCCC3)S2)S1,> 100
2,CCOC(=O)N1CCN(Cc2cc(=O)n3ccc(C)cc3n2)CC1,> 100
3,COc1cccc(C2SC(N)=Nc3c2c(C)nn3C(=O)c2ccccc2O)c1 (stereo not given),> 10

# Tested on: NCI-H460 lung
# Assay: growth of human tumour cells (NCI), 48 h
row,Compound,TGI [µM]
1,COC(=O)C1=C(C(=O)OC)SC(=C2SCSC3=C2SC(C(=O)OC)=C(C(=O)OC)C32SC3=C(CCCC3)S2)S1,> 100
2,CCOC(=O)N1CCN(Cc2cc(=O)n3ccc(C)cc3n2)CC1,> 100
3,COc1cccc(C2SC(N)=Nc3c2c(C)nn3C(=O)c2ccccc2O)c1 (stereo not given),> 10

# Tested on: KM12 colon
# Assay: growth of human tumour cells (NCI), 48 h
row,Compound,TGI [µM]
1,COC(=O)C1=C(C(=O)OC)SC(=C2SCSC3=C2SC(C(=O)OC)=C(C(=O)OC)C32SC3=C(CCCC3)S2)S1,> 100
2,CCOC(=O)N1CCN(Cc2cc(=O)n3ccc(C)cc3n2)CC1,> 100
3,COc1cccc(C2SC(N)=Nc3c2c(C)nn3C(=O)c2ccccc2O)c1 (stereo not given),> 10

# Tested on: MDA-MB-435
# Assay: growth of human tumour cells (NCI), 48 h
row,Compound,TGI [µM]
1,COC(=O)C1=C(C(=O)OC)SC(=C2SCSC3=C2SC(C(=O)OC)=C(C(=O)OC)C32SC3=C(CCCC3)S2)S1,> 100
2,CCOC(=O)N1CCN(Cc2cc(=O)n3ccc(C)cc3n2)CC1,> 100
3,COc1cccc(C2SC(N)=Nc3c2c(C)nn3C(=O)c2ccccc2O)c1 (stereo not given),> 10

# Tested on: SK-MEL-2 melanoma
# Assay: growth of human tumour cells (NCI), 48 h
row,Compound,TGI [µM]
1,COC(=O)C1=C(C(=O)OC)SC(=C2SCSC3=C2SC(C(=O)OC)=C(C(=O)OC)C32SC3=C(CCCC3)S2)S1,> 100
2,CCOC(=O)N1CCN(Cc2cc(=O)n3ccc(C)cc3n2)CC1,> 100
3,COc1cccc(C2SC(N)=Nc3c2c(C)nn3C(=O)c2ccccc2O)c1 (stereo not given),> 10

# Tested on: HOP-92 NSCLC
# Assay: growth of human tumour cells (NCI), 48 h
row,Compound,TGI [µM]
1,COC(=O)C1=C(C(=O)OC)SC(=C2SCSC3=C2SC(C(=O)OC)=C(C(=O)OC)C32SC3=C(CCCC3)S2)S1,> 100
2,CCOC(=O)N1CCN(Cc2cc(=O)n3ccc(C)cc3n2)CC1,> 100
3,COc1cccc(C2SC(N)=Nc3c2c(C)nn3C(=O)c2ccccc2O)c1 (stereo not given),> 10

# Tested on: SW-620 colon
# Assay: growth of human tumour cells (NCI), 48 h
row,Compound,TGI [µM]
1,COC(=O)C1=C(C(=O)OC)SC(=C2SCSC3=C2SC(C(=O)OC)=C(C(=O)OC)C32SC3=C(CCCC3)S2)S1,> 100
2,CCOC(=O)N1CCN(Cc2cc(=O)n3ccc(C)cc3n2)CC1,> 100
3,COc1cccc(C2SC(N)=Nc3c2c(C)nn3C(=O)c2ccccc2O)c1 (stereo not given),> 10

# Source: PubChem BioAssay (NCI)
